By MIC90 is commonly meant an inhibitory concentration at the 90% level, which refers to growth in some studies and to a panel of isolates in others. High values mean lower susceptibility, low ones higher susceptibility.

In brackets after ≈: the same amount, converted by molar mass. Activity calls are given as the source filed them. The rule behind the calls is not given here. Where only a bound is given, the exact number is not on record here.

Data on 15 molecules can be found in ChEMBL document CHEMBL1154724, “Synthesis and antimicrobial activity evaluation of new 1,2,4-triazoles and 1,3,4-thiadiazoles bearing imidazo[2,1-b]thiazole moiety” (2010).

Common to all, as to type: functional
For experiment [1], the system named is Nannizzia gypsea. In words: Antifungal activity against Microsporum gypseum NCPF 580 after 7 days by microbroth dilution method. As to conditions: NCPF 580, 168 h, read-out: MIC100. (In broth dilution the organism is exposed to a series of concentrations in liquid medium.)
The subject of experiment [2] is Trichophyton tonsurans. In words: Antifungal activity against Trichophyton tonsurans NCPF 245 after 7 days by microbroth dilution method. To be noted: NCPF 245, 168 h, read-out: MIC100.
The subject of experiment [3] is Trichophyton erinacei. In words: Antifungal activity against Trichophyton mentagrophytes var. erinacei NCPF 375 after 7 days by microbroth dilution method. As to conditions: NCPF 375, 168 h, read-out: MIC100.
For experiment [4], the system named is Staphylococcus aureus. In words: Antibacterial activity against Staphylococcus aureus ATCC 29213 after 16 to 20 hrs by microbroth dilution method.
Experiment [5] concerns Pseudomonas aeruginosa. The experiment is described as follows: Antibacterial activity against Pseudomonas aeruginosa ATCC 27853 after 16 to 20 hrs by microbroth dilution method.
In experiment [6] the test system is Escherichia coli. In words: Antibacterial activity against Escherichia coli ATCC 25922 after 16 to 20 hrs by microbroth dilution method.
In experiment [7] the test system is Candida albicans. The experiment is described as follows: Antifungal activity against Candida albicans ATCC 10231 after 48 hrs by microbroth dilution method. As to conditions: ATCC 10231, 48 h.
For experiment [8], the system named is Candida parapsilosis. In words: Antifungal activity against Candida parapsilosis ATCC 22019 after 48 hrs by microbroth dilution method. As to conditions: Lodderomyces parapsilosis, ATCC 22019, 48 h.
Experiment [9] relates to Pichia kudriavzevii. The experiment is described as follows: Antifungal activity against Candida krusei ATCC 6258 after 48 hrs by microbroth dilution method. To be noted: ATCC 6258, 48 h.
For experiment [10], the system named is Mycobacterium tuberculosis. In words: Antimycobacterial activity against Mycobacterium tuberculosis H37Rv ATCC 27294 by microplate alamar blue assay.
[11] abbreviates: Mycobacterium tuberculosis, H37Rv ATCC 27294.

With `C[C@@H]1[C@H](O)[C@@H](C)/C=C/C=C/C=C/C=C/C=C/C=C/C=C/[C@H](O[C@@H]2O[C@H](C)[C@@H](O)[C@H](N)[C@@H]2O)C[C@@H]2O[C@](O)(C[C@@H](O)C[C@@H](O)[C@H](O)CC[C@@H](O)C[C@@H](O)CC(=O)O[C@H]1C)C[C@H](O)[C@H]2C(=O)O` [AMPHOTERICIN B], the MIC in [1] was 0.5 µg/mL (≈ 0.541 µM); in [2], 0.25 µg/mL (≈ 0.271 µM); in experiment [3], 0.5 µg/mL (≈ 0.541 µM).

As for `CCNc1nnc(Cc2csc3nc(-c4ccc(Br)cc4)cn23)s1`, the MIC in [4] was 64 µg/mL (≈ 152 µM); in [5] it was 64 µg/mL (≈ 152 µM); in [6], 32 µg/mL (≈ 76.1 µM); in experiment [7], 64 µg/mL (≈ 152 µM); in experiment [8], 64 µg/mL (≈ 152 µM); in experiment [9], 32 µg/mL (≈ 76.1 µM). Also, the MIC in experiment [1] stood at 16 µg/mL (≈ 38.1 µM); in experiment [2] it was 8 µg/mL (≈ 19 µM); in [3], 16 µg/mL (≈ 38.1 µM).

For the molecule `Cn1c(Cc2csc3nc(-c4ccc(Br)cc4)cn23)n[nH]c1=S`, the MIC in [4] was more than 64 µg/mL; in experiment [5], more than 64 µg/mL; in experiment [6], more than 64 µg/mL; in experiment [7] it was 32 µg/mL (≈ 78.8 µM); in [8] it was 32 µg/mL (≈ 78.8 µM); in [9] it was 32 µg/mL (≈ 78.8 µM). In addition, the MIC in [1] was 16 µg/mL (≈ 39.4 µM); in [2], 16 µg/mL (≈ 39.4 µM); in [3], 8 µg/mL (≈ 19.7 µM). Also, the inhibition result in [10] was “inactive”. Also, in [10] (setting [11]), the MIC90 was more than 6.25 µg/mL.

As to `CCCn1c(Cc2csc3nc(-c4ccc(Br)cc4)cn23)n[nH]c1=S`, the MIC in [4] is 64 µg/mL (≈ 147 µM); in experiment [5], more than 64 µg/mL; in experiment [6], 64 µg/mL (≈ 147 µM); in [7], 32 µg/mL (≈ 73.7 µM); in experiment [8] it was 64 µg/mL (≈ 147 µM); in [9], 64 µg/mL (≈ 147 µM). Further, the MIC amounted to 16 µg/mL (≈ 36.8 µM) in experiment [1], 8 µg/mL (≈ 18.4 µM) in experiment [2] and 16 µg/mL (≈ 36.8 µM) in [3]. The inhibition result in experiment [10] was “inactive”. This molecule also registered an MIC90 in [10] (setting [11]) of more than 6.25 µg/mL.

Take `CCC(C)n1ncn(-c2ccc(N3CCN(c4ccc(OCC5COC(Cn6cncn6)(c6ccc(Cl)cc6Cl)O5)cc4)CC3)cc2)c1=O` (configuration not stated) [ITRACONAZOLE]: the figures for the MIC in [7], in experiment [8] and in experiment [9] were 0.12 µg/mL (≈ 0.17 µM), 0.06 µg/mL (≈ 0.085 µM) and 0.12 µg/mL (≈ 0.17 µM), respectively.

`S=c1[nH]nc(Cc2csc3nc(-c4ccc(Br)cc4)cn23)n1-c1ccc(Br)cc1`: the MIC was more than 64 µg/mL in [4]; more than 64 µg/mL in [5]; more than 64 µg/mL in experiment [6]; 64 µg/mL (≈ 117 µM) in [7]; 32 µg/mL (≈ 58.5 µM) in experiment [8]; 64 µg/mL (≈ 117 µM) in experiment [9]. Besides, the MIC in [1] worked out at 64 µg/mL (≈ 117 µM); in experiment [2], 32 µg/mL (≈ 58.5 µM); in [3] it was 64 µg/mL (≈ 117 µM). Further, the inhibition result in [10] is “inactive”. Moreover, in [10] (setting [11]), the MIC90 was more than 6.25 µg/mL.

As to `Cc1ccc(-n2c(Cc3csc4nc(-c5ccc(Br)cc5)cn34)n[nH]c2=S)cc1`, the MIC in [4] amounted to 64 µg/mL (≈ 133 µM); in experiment [5], 64 µg/mL (≈ 133 µM); in experiment [6], 64 µg/mL (≈ 133 µM); in [7] it was 16 µg/mL (≈ 33.2 µM); in [8], 16 µg/mL (≈ 33.2 µM); in [9], 16 µg/mL (≈ 33.2 µM). Besides, the MIC in [1], in experiment [2] and in experiment [3] was 16 µg/mL (≈ 33.2 µM) throughout. Also, in experiment [10], the “inhibition (INH)” value came to 4%. In experiment [10] (setting [11]), this molecule showed an MIC90 of more than 6.25 µg/mL.

`CO[C@H]1/C=C/O[C@@]2(C)Oc3c(C)c(O)c4c(O)c(c(/C=N/N5CCN(C)CC5)c(O)c4c3C2=O)NC(=O)/C(C)=C\C=C\[C@H](C)[C@H](O)[C@@H](C)[C@@H](O)[C@@H](C)[C@H](OC(C)=O)[C@@H]1C` [RIFAMPIN]: in experiment [10], the “inhibition (INH)” value was determined as 97%. In addition, the MIC in experiment [10] (Mycobacterium tuberculosis, H37Rv ATCC 27294, read-out: MIC100) came to 0.25 µg/mL (≈ 0.304 µM).

For the molecule `CCn1c(Cc2csc3nc(-c4ccc(Br)cc4)cn23)n[nH]c1=S`, the MIC in experiment [4] was 64 µg/mL (≈ 152 µM); in experiment [5], more than 64 µg/mL; in experiment [6], 64 µg/mL (≈ 152 µM); in [7], 32 µg/mL (≈ 76.1 µM); in experiment [8], 32 µg/mL (≈ 76.1 µM); in [9], 32 µg/mL (≈ 76.1 µM). Further, the values for the MIC in [1], in [2] and in [3] were 16 µg/mL (≈ 38.1 µM), 8 µg/mL (≈ 19 µM) and 16 µg/mL (≈ 38.1 µM), respectively. The inhibition entry in [10] was “inactive”. This molecule also had an MIC90 in [10] (setting [11]) of more than 6.25 µg/mL.

Turning to `C[C@H]1COc2c(N3CCN(C)CC3)c(F)cc3c(=O)c(C(=O)O)cn1c23.C[C@H]1COc2c(N3CCN(C)CC3)c(F)cc3c(=O)c(C(=O)O)cn1c23.O` [LEVOFLOXACIN], the MIC in experiment [4] was found to be 0.12 µg/mL; in [5] it was 0.5 µg/mL.

As to `S=c1[nH]nc(Cc2csc3nc(-c4ccc(Br)cc4)cn23)n1-c1ccccc1`, the MIC in experiment [4] was 64 µg/mL (≈ 137 µM); in experiment [5], more than 64 µg/mL; in [6], more than 64 µg/mL; in experiment [7] it was 32 µg/mL (≈ 68.3 µM); in experiment [8] it was 32 µg/mL (≈ 68.3 µM); in experiment [9], 32 µg/mL (≈ 68.3 µM). Further, the MIC in experiment [1] was determined as 32 µg/mL (≈ 68.3 µM); in [2], 16 µg/mL (≈ 34.2 µM); in [3] it was 32 µg/mL (≈ 68.3 µM). Besides, the “inhibition (INH)” value in [10] is given as 3%. For the same molecule, the MIC90 in [10] (setting [11]) is more than 6.25 µg/mL.

Take `CCCCn1c(Cc2csc3nc(-c4ccc(Br)cc4)cn23)n[nH]c1=S`: the MIC turned out to be 32 µg/mL (≈ 71.4 µM) in experiment [4]; 64 µg/mL (≈ 143 µM) in experiment [5]; 32 µg/mL (≈ 71.4 µM) in experiment [6]; 32 µg/mL (≈ 71.4 µM) in experiment [7]; 64 µg/mL (≈ 143 µM) in experiment [8]; 64 µg/mL (≈ 143 µM) in experiment [9]. For the same molecule, the MIC in experiment [1], in [2] and in [3] was 32 µg/mL (≈ 71.4 µM) throughout. In experiment [10], the inhibition entry was “inactive”. For the same molecule, the MIC90 in experiment [10] (setting [11]) was more than 6.25 µg/mL.

Take `S=c1[nH]nc(Cc2csc3nc(-c4ccc(Br)cc4)cn23)n1-c1ccc(Cl)cc1`: the MIC in experiment [4] is more than 64 µg/mL; in [5], more than 64 µg/mL; in experiment [6] it was more than 64 µg/mL; in experiment [7], 64 µg/mL (≈ 127 µM); in experiment [8], more than 64 µg/mL; in experiment [9] it was 64 µg/mL (≈ 127 µM). Also, the MIC in experiment [1], in experiment [2] and in [3] was 32 µg/mL (≈ 63.6 µM) each time. Moreover, the inhibition entry in experiment [10] is “inactive”. The MIC90 in experiment [10] (setting [11]) is more than 6.25 µg/mL.

For `C=CCn1c(Cc2csc3nc(-c4ccc(Br)cc4)cn23)n[nH]c1=S`, the MIC in experiment [4] was more than 64 µg/mL; in experiment [5], more than 64 µg/mL; in [6], more than 64 µg/mL; in experiment [7], 64 µg/mL (≈ 148 µM); in [8], 64 µg/mL (≈ 148 µM); in [9], 64 µg/mL (≈ 148 µM). Besides, the results for the MIC in experiment [1], in experiment [2] and in experiment [3] were 64 µg/mL (≈ 148 µM), 32 µg/mL (≈ 74 µM) and 64 µg/mL (≈ 148 µM), respectively. For the same molecule, the “inhibition (INH)” value in experiment [10] is given as 1%. The same molecule came in with an MIC90 in experiment [10] (setting [11]) of more than 6.25 µg/mL.

Regarding `CNc1nnc(Cc2csc3nc(-c4ccc(Br)cc4)cn23)s1`, the MIC in [4] was more than 64 µg/mL; in [5] it was more than 64 µg/mL; in [6], more than 64 µg/mL; in experiment [7] it was 32 µg/mL (≈ 78.8 µM); in experiment [8] it was 16 µg/mL (≈ 39.4 µM); in [9], 16 µg/mL (≈ 39.4 µM). Also, the MIC in experiment [1] is 16 µg/mL (≈ 39.4 µM); in experiment [2], 8 µg/mL (≈ 19.7 µM); in experiment [3] it was 16 µg/mL (≈ 39.4 µM).
